According to paper PMC12171682, “Saarvienin A—A Novel Glycopeptide with Potent Activity against Drug‐Resistant Bacteria” (Angewandte Chemie (International Ed. in English), 2025):
Values after ≈ are worked out from the molar mass of the structure shown. Read-outs that look alike come from different tables or passages of the source.

Columns and labels:
[1] = tested on: E. faecalis DSM 12956 (VRE, vanB positive); settings: broth microdilution, cation-adjusted Mueller-Hinton Broth II, ~4 × 10⁵ CFU/mL, 37 °C, 24 h; mean of three independent biological replicates, each in technical triplicate
E. faecalis ATCC 29212 = settings: broth microdilution, 37 °C, 24 h
E. coli K12 ΔtolC = settings: broth microdilution, cation-adjusted Mueller-Hinton Broth II, 37 °C, 24 h, mean of three independent biological replicates, each in technical triplicate
E. coli K12 ΔacrB = settings: broth microdilution, cation-adjusted Mueller-Hinton Broth II, ~4 × 10⁵ CFU/mL, 37 °C, 24 h; mean of three independent biological replicates, each in technical triplicate
[2] = tested on: S. aureus Mu50 (MRSA/VISA); settings: broth microdilution, cation-adjusted Mueller-Hinton Broth II, ~4 × 10⁵ CFU/mL, 37 °C, 24 h; mean of three independent biological replicates, each in technical triplicate
S. aureus HG001‐DRSA = settings: daptomycin-resistant mutant of HG001; broth microdilution, cation-adjusted Mueller-Hinton Broth II, ~4 × 10⁵ CFU/mL, 37 °C, 24 h; mean of three independent biological replicates, each in technical triplicate
[3] = tested on: E. coli WO153 (AB1157, recJ asmB1, ΔtolC); settings: broth microdilution, cation-adjusted Mueller-Hinton Broth II, ~4 × 10⁵ CFU/mL, 37 °C, 24 h; mean of three independent biological replicates, each in technical triplicate
[4] = tested on: S. aureus DSM 11822 (MDR); settings: broth microdilution, cation-adjusted Mueller-Hinton Broth II, ~4 × 10⁵ CFU/mL, 37 °C, 24 h; mean of three independent biological replicates, each in technical triplicate
S. aureus N315 (MRSA) = settings: broth microdilution, cation-adjusted Mueller-Hinton Broth II, ~4 × 10⁵ CFU/mL, 37 °C, 24 h; mean of three independent biological replicates, each in technical triplicate
[5] = tested on: M. tuberculosis H37Ra ATCC 25177
[6] = tested on: vancomycin‐resistant E. faecium clinical isolates with reduced susceptibility to daptomycin (n = 26); settings: broth microdilution, MHB II, daptomycin with 50 µg/mL Ca2+, mean of two independent experiments
[7] = 26 VRE E. faecium clinical isolates

**Q.** `CN[C@H](CC(C)C)C(=O)N[C@H]1C(=O)N[C@@H](CC(N)=O)C(=O)N[C@H]2C(=O)N[C@H]3C(=O)N[C@H](C(=O)N[C@H](C(=O)O)c4cc(O)cc(O)c4-c4cc3ccc4O)[C@H](O)c3ccc(c(Cl)c3)Oc3cc2cc(c3O[C@@H]2O[C@H](CO)[C@@H](O)[C@H](O)[C@H]2O[C@H]2C[C@](C)(N)[C@H](O)[C@H](C)O2)Oc2ccc(cc2Cl)[C@H]1O` [Vancomycin, vancomycin] was tested. Which “MIC, E. faecalis DSM 12956 (VRE, vanB positive)” value [1] did it give?
**A.** 16 µg/mL (≈ 11 µM)

**Q.** What about the “MIC, E. faecalis ATCC29212” value (E. faecalis ATCC 29212; cation-adjusted Mueller-Hinton Broth II, ~4 × 10⁵ CFU/mL, mean of three independent biological replicates, each in technical triplicate) of the same molecule?
**A.** 4 µg/mL (≈ 2.76 µM)

**Q.** What about the “MIC, E. faecalis ATCC29212” value (E. faecalis ATCC 29212; reference strain in Table S5, MHB II, daptomycin with 50 µg/mL Ca2+, mean of two independent experiments) of the same molecule?
**A.** 4 µg/mL (≈ 2.76 µM)

**Q.** And the “MIC, E. coli K12 ΔtolC (tolC‐deficient) + PMBN” value (E. coli K12 ΔtolC; co‐incubated with sub‐lethal concentrations of polymyxin B nonapeptide (PMBN))?
**A.** >64 µg/mL

**Q.** And the “MIC, E. coli K12 ΔtolC” value (E. coli K12 ΔtolC; without PMBN, ~4 × 10⁵ CFU/mL)?
**A.** >64 µg/mL

**Q.** And the “MIC, E. coli K12 ΔacrB” value (E. coli K12 ΔacrB)?
**A.** >64 µg/mL

**Q.** What about the “MIC, S. aureus Mu50 (MRSA/VISA)” value [2] of the same molecule?
**A.** 8 µg/mL (≈ 5.52 µM)

**Q.** And the “MIC, S. aureus HG001‐DRSA” value (S. aureus HG001‐DRSA)?
**A.** 4 µg/mL (≈ 2.76 µM)

**Q.** What about the “MIC, E. coli WO153 (AB1157, recJ asmB1, ΔtolC)” value [3] of the same molecule?
**A.** 32 µg/mL (≈ 22.1 µM)

**Q.** What about the “MIC, S. aureus DSM 11822 (MDR)” value [4] of the same molecule?
**A.** 1 µg/mL (≈ 0.69 µM)

**Q.** And the “MIC, S. aureus N315 (MRSA)” value (S. aureus N315 (MRSA))?
**A.** 2 µg/mL (≈ 1.38 µM)

**Q.** What about the “MIC, M. tuberculosis H37Ra ATCC 25177” value [5] of the same molecule?
**A.** 64 µg/mL (≈ 44.2 µM)

**Q.** And the MIC50 [6, 7]?
**A.** >64 µg/mL

**Q.** And the MIC90 [6, 7]?
**A.** >64 µg/mL

**Q.** And the “MIC, Enterococcus faecium isolate 1” value ([6]; clinical isolate 1, 37 °C, 24 h)?
**A.** > 64 µg/mL

**Q.** And the “MIC, Enterococcus faecium isolate 2” value ([6]; clinical isolate 2, 37 °C, 24 h)?
**A.** > 64 µg/mL

**Q.** And the “MIC, Enterococcus faecium isolate 3” value ([6]; clinical isolate 3, 37 °C, 24 h)?
**A.** 64 µg/mL (≈ 44.2 µM)

**Q.** What about the “MIC, Enterococcus faecium isolate 4” value ([6]; clinical isolate 4, 37 °C, 24 h) of the same molecule?
**A.** > 64 µg/mL

**Q.** And the “MIC, Enterococcus faecium isolate 5” value ([6]; clinical isolate 5, 37 °C, 24 h)?
**A.** > 64 µg/mL

**Q.** What about the “MIC, Enterococcus faecium isolate 6” value ([6]; clinical isolate 6, 37 °C, 24 h) of the same molecule?
**A.** > 64 µg/mL

**Q.** And the “MIC, Enterococcus faecium isolate 7” value ([6]; clinical isolate 7, 37 °C, 24 h)?
**A.** > 64 µg/mL

**Q.** And the “MIC, Enterococcus faecium isolate 8” value ([6]; clinical isolate 8, 37 °C, 24 h)?
**A.** > 64 µg/mL

**Q.** And the “MIC, Enterococcus faecium isolate 9” value ([6]; clinical isolate 9, 37 °C, 24 h)?
**A.** > 64 µg/mL

**Q.** And the “MIC, Enterococcus faecium isolate 10” value ([6]; clinical isolate 10, 37 °C, 24 h)?
**A.** > 64 µg/mL

**Q.** What about the “MIC, Enterococcus faecium isolate 11” value ([6]; clinical isolate 11, 37 °C, 24 h) of the same molecule?
**A.** > 64 µg/mL

**Q.** And the “MIC, Enterococcus faecium isolate 12” value ([6]; clinical isolate 12, 37 °C, 24 h)?
**A.** > 64 µg/mL

**Q.** And the “MIC, Enterococcus faecium isolate 13” value ([6]; clinical isolate 13, 37 °C, 24 h)?
**A.** > 64 µg/mL

**Q.** What about the “MIC, Enterococcus faecium isolate 14” value ([6]; clinical isolate 14, 37 °C, 24 h) of the same molecule?
**A.** > 64 µg/mL

**Q.** And the “MIC, Enterococcus faecium isolate 15” value ([6]; clinical isolate 15, 37 °C, 24 h)?
**A.** > 64 µg/mL

**Q.** And the “MIC, Enterococcus faecium isolate 16” value ([6]; clinical isolate 16, 37 °C, 24 h)?
**A.** > 64 µg/mL

**Q.** What about the “MIC, Enterococcus faecium isolate 17” value ([6]; clinical isolate 17, 37 °C, 24 h) of the same molecule?
**A.** > 64 µg/mL

**Q.** What about the “MIC, Enterococcus faecium isolate 18” value ([6]; clinical isolate 18, 37 °C, 24 h) of the same molecule?
**A.** > 64 µg/mL

**Q.** And the “MIC, Enterococcus faecium isolate 19” value ([6]; clinical isolate 19, 37 °C, 24 h)?
**A.** > 64 µg/mL

**Q.** And the “MIC, Enterococcus faecium isolate 20” value ([6]; clinical isolate 20, 37 °C, 24 h)?
**A.** > 64 µg/mL

**Q.** What about the “MIC, Enterococcus faecium isolate 21” value ([6]; clinical isolate 21, 37 °C, 24 h) of the same molecule?
**A.** > 64 µg/mL

**Q.** And the “MIC, Enterococcus faecium isolate 22” value ([6]; clinical isolate 22, 37 °C, 24 h)?
**A.** > 64 µg/mL

**Q.** What about the “MIC, Enterococcus faecium isolate 23” value ([6]; clinical isolate 23, 37 °C, 24 h) of the same molecule?
**A.** > 64 µg/mL

**Q.** What about the “MIC, Enterococcus faecium isolate 24” value ([6]; clinical isolate 24, 37 °C, 24 h) of the same molecule?
**A.** > 64 µg/mL

**Q.** And the “MIC, Enterococcus faecium isolate 25” value ([6]; clinical isolate 25, 37 °C, 24 h)?
**A.** > 64 µg/mL

**Q.** And the “MIC, Enterococcus faecium isolate 26” value ([6]; clinical isolate 26, 37 °C, 24 h)?
**A.** > 64 µg/mL
